What was measured:
aldosterone [1] = assay: aldosterone-antagonistic properties in adrenalectomised rats (urine volume, sodium and potassium excretion); type: in vivo, Female Holtzmann rats; conditions: aldosterone s.c. 30 min later, urine collected 3 hours, control = aldosterone only
Protocol: If compounds of formula I are administered to the animals before the treatment with aldosterone, then there is observed, in comparison with animals which are treated only with aldosterone (control animals), a pronounced increase of the sodium excretion (i.e. the sodium retention caused by aldosterone is antagonised), whereas the potassium excretion and the urine volume are influenced to a lesser extent.
The standard experiment is carried out as follows:
Female Holtzmann rats (150-180 g) are bilaterally adrenalectomised 70 to 74 hours before the beginning of the experiment. After the operation, the animals receive a customary rat dry feed and 0.9 percent sodium chloride solution for drinking. 16 to 17 hours before the beginning of the experiment the feed is removed from the animals, but they can subsequently drink, as before, 0.9 percent sodium chloride solution ad libitum. At the beginning of the experiment the substance to be tested as an aldosterone-antagonist is administered to the animals by means of a stomach probe. 30 minutes later the animals receive a subcutaneous injection of 4 mmg/kg of aldosterone. After a further 90 minutes, the urinary bladders of the animals are emptied by careful suprapubic pressure, whereupon the animals are placed individually in metabolic cages without food and without drink. The urine of the animals is then collected for 3 hours, whereupon their urinary bladders are once more emptied. The spontaneously excreted urine and the remaining urine obtained at the conclusion of the experiment by pressing-out the urinary bladders are collected in graduated centrifuge glasses. Sodium and potassium concentrations in the urine are determined with a flame photometer.
(§1) The following Table contains results which have been obtained in the previously described experiment with representative compounds of formula I. In this Table there are given for each compound in question the dosage administered (in mg/kg p.o.) as well as the percentage variation in the urine volume, the sodium excretion and the potassium excretion in comparison with the control animals (i.e. in comparison with the animals treated only with aldosterone). Moreover, the Table contains data relating to the acute toxicity of the compounds investigated (LD 50 in mg/kg in the case of single oral administration to mice).

[2] = acute toxicity, single oral administration to mice; conditions: mouse, in vivo
From the text: as §1

aldosterone [3] = assay: aldosterone-antagonistic properties in adrenalectomised rats (urine volume, sodium and potassium excretion); type: in vivo, Female Holtzmann rats; conditions: compared with untreated animals

Row | SMILES | potassium excretion [K+] in %, based on control animals (aldosterone [1]; 1 mg/kg p.o.) [%] | sodium excretion [Na+] in %, based on control animals (aldosterone [1]; 1 mg/kg p.o.) [%] | urine volume in %, based on control animals (aldosterone [1]; 1 mg/kg p.o.) [%] | LD50 [2] [mg/kg] | potassium excretion [K+] in %, based on control animals (aldosterone [1]; 10 mg/kg p.o.) [%] | sodium excretion [Na+] in %, based on control animals (aldosterone [1]; 10 mg/kg p.o.) [%] | urine volume in %, based on control animals (aldosterone [1]; 10 mg/kg p.o.) [%] | excreted urine volume, effect of aldosterone (aldosterone [3]) | potassium excretion, effect of aldosterone (aldosterone [3]) | sodium excretion, effect of aldosterone (aldosterone [3])
1 | Cc1nnc2n1-c1ccc(NC(=O)NCCO)cc1C(c1ccccc1Cl)=NC2(C)C [Example 12, 1-[6-(o-chlorophenyl)-1,4,4-trimethyl-4H-s-triazolo[4,3-a][1,4]benzodiazepin-8-yl]-3-(2-hydroxyethyl)urea] | 75 | 215 | 75 | > 5000 |  |  |  |  |  | 
2 | Cc1nnc2n1-c1ccc(NC(=O)N(C)C)cc1C(c1ccccc1Cl)=NC2 [Example 10, 3-[6-(o-chlorophenyl)-1-methyl-4H-s-triazolo[4,3-a][1,4]-benzodiazepin-8-yl]-1,1-dimethylurea] |  |  |  | > 5000 | 112 | 252 | 103 |  |  | 
3 | CN(C)C(=O)Nc1ccc2c(c1)C(c1ccccc1Cl)=NCc1nncn1-2 [Example 8, 3-[6-(o-chlorophenyl)-4H-s-triazolo[4,3-a][1,4]benzodiazepin-8-yl]-1,1-dimethylurea] |  |  |  | > 5000 | 100 | 252 | 131 |  |  | 
4 | CC1(C)N=C(c2ccccc2Cl)c2cc(NC(=O)N3CCCC3)ccc2-n2cnnc21 [Example 13, N-[6-(o-chlorophenyl)-4,4-dimethyl-4H-s-triazolo[4,3-a][1,4]benzodiazepin-8-yl]-1-pyrrolidinecarboxamide] | 72 | 155 | 97 | > 5000 |  |  |  |  |  | 
5 | CN(C)C(=O)Nc1ccc2c(c1)C(c1ccccc1F)=NC(C)(C)c1nncn1-2 [Example 5, 3-[6-(o-fluorophenyl)-4,4-dimethyl-4H-s-triazolo[4,3-a][1,4]benzodiazepin-8-yl]-1,1-dimethylurea] | 65 | 238 | 106 | > 5000 |  |  |  |  |  | 
6 | C[C@]12CCC(=O)C=C1CC[C@@H]1[C@@H]2[C@@H](O)C[C@]2(C=O)[C@@H](C(=O)CO)CC[C@@H]12 [aldosterone] |  |  |  |  |  |  |  | reduction of the excreted urine volume | increased potassium excretion | pronounced reduction of the sodium excretion
7 | Cc1nnc2n1-c1ccc(NC(=O)NCCO)cc1C(c1ccccc1F)=NC2(C)C [Example 4, 1-[6-(o-fluorophenyl)-1,4,4-trimethyl-4H-s-triazolo[4,3-a][1,4]benzodiazepin-8-yl]-3-(2-hydroxyethyl)urea] | 90 | 256 | 112 | > 5000 |  |  |  |  |  | 

Reference: patent US4374773A, “Triazolo-benzodiazepine derivatives” (Hoffmann-La Roche Inc., priority 1980, dated 1983)
